# Source: patent US10806717B2, “Methods and compositions for improving cognitive function” (The Johns Hopkins University, priority 2013, dated 2020)
# Entries after “also recorded” stand apart in the source; their conditions may differ.
# What was measured:
# aMCI subjects [1] = assay: Explicit 3-alternative forced choice task (lure stimuli); format: in vivo, human
# Experimental: As described above, the drug treatment period is the two weeks preceding Visit 1 or 2 (with the two week period preceding the other Visit being the placebo phase). […]
# The activity of the subject's medial temporal lobe is measured by functional MRI during the subject's participation in an explicit 3-alternative forced choice task, where participants view novel, repeated and similar (“lure”) stimuli. The Psychophysics Toolbox extensions in Matlab 7.0 (The MathWorks, Natick, Mass.) is used for stimulus presentation and behavioral data collection. Stimuli are color photographs of common objects. Each participant undergoes a series of testing runs during the functional imaging sessions, each run consisting of a mix of three types of image pairs: similar pairs, identical pairs and unrelated foils. These image pairs are fully randomized throughout the run and presented individually as a series of images (see FIG. 10A). Participants are instructed to make a judgment as to whether each object seen is new, old or similar. Of critical interest are the participants' responses when presented with the second of the pair of similar objects (the “lure”; see FIG. 10B). The correct identification by the subject of lure stimuli as “similar,” provides behavioral evidence of pattern separation, i.e., the separation of similar experiences into distinct non-overlapping representations. […]
# As described above, the drug treatment period is the two weeks preceding Visit 1 or 2 (with the two week period preceding the other Visit being the placebo phase). […] For the subjects receiving the 62.5 mg BID drug treatment, a quarter of a scored 250 mg tablet of levetiracetam is used to achieve a dose of 62.5 twice a day, i.e., 125 mg/day which is approximately 1.5 mg/kg/day.
# The activity of the subject's medial temporal lobe is measured by functional MRI during the subject's participation in an explicit 3-alternative forced choice task, where participants view novel, repeated and similar (“lure”) stimuli. […]
# aMCI subjects [2] = assay: fMRI activity of medial temporal lobe subregions during memory judgments; format: in vivo, human
# aMCI subjects [3] = system: aMCI subjects; set-up: species or system human; conditions: in vivo
# [4] = system: reelin in Entorhinal Cortex (EC2); assay: In situ hybridization of reelin mRNA after chronic levetiracetam; format: in vivo, rat; conditions: levetiracetam 10 mg/kg/day, osmotic minipumps, four weeks (28 days), aged-impaired rats; vs AI-VEH p=0.033
# somatostatin in DG hilus = assay: Immunohistochemistry of SOM-immunoreactive hilar neurons after chronic levetiracetam; format: in vivo, rat; conditions: levetiracetam 10 mg/kg/day, osmotic minipumps, four weeks, aged-impaired rats; AI-LEV vs AI-VEH p<0.01
# aged-impaired (AI) rats = assay: Radial Arm Maze task with one-hour delay, levetiracetam and/or valproate; format: in vivo, rat; conditions: for effective in reducing the number of errors: levetiracetam on its own
structure (smiles),measurement,setting,value
"CC[C@@H](C(N)=O)N1CCCC1=O [levetiracetam, (2S)-2-(2-oxopyrrolidin-1-yl)butanamide]",performance in the memory task (similar vs old responses to lures),"aMCI subjects [1]; levetiracetam 62.5 mg BID for two weeks vs placebo, p=0.041",improves significantly
same,performance in the memory task (similar vs old responses to lures),"aMCI subjects [1]; levetiracetam 125 mg twice a day for two weeks vs placebo, p=0.039",improves significantly
same,performance in the memory task (similar vs old responses to lures),"aMCI subjects [1]; levetiracetam 250 mg BID for two weeks vs placebo, p=0.2396",does not significantly improve
same,DG/CA3 hyperactivity during memory judgments,"aMCI subjects [2]; levetiracetam 62.5 mg BID for two weeks, N=20",does not significantly reduce
same,entorhinal cortex (EC) activity during memory judgments,aMCI subjects [2]; levetiracetam 125 mg twice a day for two weeks vs placebo,increases EC activity
same,DG/CA3 activity during lure stimuli correctly identified as similar,"aMCI subjects [2]; levetiracetam 125 mg twice a day for two weeks vs placebo, p=0.037",reduces DG/CA3 hyper-activity
same,DG/CA3 hyperactivity during memory judgments,"aMCI subjects [2]; levetiracetam 250 mg BID for two weeks, N=17",does not significantly reduce
same,"performance in Buschke Selective Reminding Test-Delayed Recall, Benton Visual Retention Test, Verbal Paired Associates Test-Recognition and -Delayed Recall",aMCI subjects [3],fail to rescue performance
same,reelin (mRNA expression) in entorhinal cortex,[4],restores the levels of reelin; also recorded: significantly increased the expression of reelin
same,levels of somatostatin (SOM-immunoreactive hilar neurons) in DG hilus,somatostatin in DG hilus,restores the levels of somatostatin; also recorded: restores sematostatin
same,effective doses in the animal model,"aged-impaired (AI) rats; AI rats, given acutely",5 to 10 mg/kg
same,performance of AI rats in the radial maze task,aged-impaired (AI) rats; levetiracetam 20 mg/kg,fails to improve the performance
same,effective in reducing the number of errors,aged-impaired (AI) rats; 1.25 mg/kg or 2.5 mg/kg i.p.,not
same,effective in reducing the number of errors,aged-impaired (AI) rats; 5-10 mg/kg i.p.,effective
